Source: PubChem BioAssay (NCI)
Where “and” joins values, the source holds several entries; their conditions need not be identical. Identical values can stand only once.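 The compound was tested at five concentrations on cells cultured in 96-well plates, with a 48-hour exposure period. GI50 is the concentration that inhibits growth by half. At the TGI there is no net growth.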

Key:
Test in all cases: inhibition of tumour cell growth, NCI panel, 48 h
[1] = test system: HCT-116 colon
[2] = test system: HCT-15 colon
[3] = test system: HCC-2998 colon
[4] = test system: SF-295 CNS
[5] = test system: UACC-257 melanoma
[6] = test system: CAKI-1 renal
[7] = test system: SK-MEL-28 melanoma
[8] = test system: OVCAR-4 ovarian
[9] = test system: OVCAR-3 ovarian
[10] = test system: CCRF-CEM leukemia

Compound | TGI [1] | TGI [2] | TGI [3] | TGI [4] | TGI [5] | TGI [6] | TGI [7] | TGI [8] | TGI [9] | TGI [10] | GI50 [1] | GI50 [2] | GI50 [3] | GI50 [4] | GI50 [5] | GI50 [6] | GI50 [7] | GI50 [8] | GI50 [9] | GI50 [10]
CC1(C)C(=O)C(C)(C)C1=NN | > 100 µM | > 100 µM | > 100 µM | > 100 µM | > 100 µM | > 100 µM | > 100 µM | > 100 µM | > 100 µM | – | – | – | – | – | – | – | – | – | – | –
O=C1C=CC=CC2CC=C[C@@H](O)C12 (some centres not stated) | 27.7 µM | 35.2 µM | – | 48.5 µM | 29.7 µM | > 100 µM | – | > 100 µM | – | > 100 µM | – | – | – | – | – | – | – | – | – | –
CCOC(=O)C1=C(c2ccccc2)N(C)c2ccccc2S1 | 73.3 µM | 31.3 µM | – | > 100 µM | 86.1 µM | > 100 µM | > 100 µM | > 100 µM | > 100 µM | > 100 µM | – | – | – | – | – | – | – | – | – | –
O=C(c1ccc(Cl)cc1)c1ccc(OCCCCCCCCCCOc2ccc(C(=O)c3ccc(Cl)cc3)cc2)cc1 | – | > 100 µM | > 100 µM | > 100 µM | > 100 µM | > 100 µM | > 100 µM | – | > 100 µM | > 100 µM | – | – | – | – | – | – | – | – | – | –
O=C(Nc1ccc(Cl)cc1Cl)C(=O)C(C(=O)c1ccc2ccccc2c1)C1OC(=O)c2ccccc21 (configuration not stated) | 18 µM | 42.3 µM | – | 19.7 µM | 65.3 µM | 83 µM | 15.3 µM | 35.2 µM | 26.1 µM | – | – | – | – | – | – | – | – | – | – | –
O=C(Nc1cccs1)c1c(O)[nH]c(=S)[nH]c1=O | – | > 100 µM | – | > 100 µM | > 100 µM | > 100 µM | > 100 µM | > 100 µM | > 100 µM | > 100 µM | – | – | – | – | – | – | – | – | – | –
COc1ccc2c(c1)C(=O)c1c-2n(CCCN=[N+]=[N-])c(=O)c2cc(N(C)C)ccc12 | > 100 µM | > 100 µM | > 100 µM | > 100 µM | > 100 µM | > 100 µM | > 100 µM | > 100 µM | > 100 µM | – | 77.3 µM | > 100 µM | > 100 µM | > 100 µM | > 100 µM | > 100 µM | > 100 µM | > 100 µM | > 100 µM | –
O=C(O)[C@@H]1[C@H](C(=O)O)[C@H](C(=O)O)C[C@@H]1C(=O)O | > 100 µM | > 100 µM | – | > 100 µM | > 100 µM | > 100 µM | > 100 µM | > 100 µM | > 100 µM | – | – | – | – | – | – | – | – | – | – | –
O=C(Nc1ccc(F)cc1)c1ccc(NC2=C(Cl)C(=O)N(Cc3ccccc3)C2=O)cc1 | 4.82 µM | 49.4 µM | > 100 µM | 16.6 µM | 56 µM | 3.36 µM | 39.5 µM | 39.6 µM | 15.3 µM | – | 2.23 µM | 13.3 µM | 11 µM | 4.27 µM | 19.8 µM | 1.78 µM | 16.5 µM | 16.5 µM | 3.59 µM | –
COc1ccc2c(c1)/C(=C\c1cccnc1)C(=O)N2 | > 100 µM | 39.5 µM | – | 60.4 µM | 31.8 µM | 9.05 µM | 64.7 µM | > 100 µM | > 100 µM | > 100 µM | 9.72 µM | 14.4 µM | – | 13.4 µM | 14.8 µM | 3.68 µM | 23.4 µM | 38.2 µM | 40.5 µM | 10.8 µM
CN(C)c1ccc([O-])cc1.CN(C)c1ccc([O-])cc1.CN(C)c1ccc([O-])cc1.CN(C)c1ccc([O-])cc1.[Ti+4] | > 100 µM | > 100 µM | – | > 100 µM | > 100 µM | > 100 µM | > 100 µM | > 100 µM | > 100 µM | > 100 µM | > 100 µM | > 100 µM | – | > 100 µM | > 100 µM | > 100 µM | > 100 µM | 75.3 µM | > 100 µM | 43.7 µM
CCOC(=O)C1=C(C(=O)c2ccc(C)cc2)C(c2cccc([N+](=O)[O-])c2)C(C(=O)c2ccc(C)cc2)=C(C(=O)OCC)N1 | 19.6 µM | 6.13 µM | – | 32.1 µM | 41.4 µM | 43.5 µM | 34.2 µM | 84.6 µM | 28.8 µM | 8.57 µM | – | – | – | – | – | – | – | – | – | –
CCc1n(Cc2ccc3ccccc3n2)cc[n+]1Cc1ccc2ccccc2n1 | 29.7 µM | > 100 µM | 14.4 µM | 20.1 µM | 0.695 µM | – | 14.7 µM | 10.4 µM | 6.66 µM | 15.4 µM | 1.35 µM | 65.7 µM | 0.227 µM | 2.81 µM | 0.0796 µM | – | 0.196 µM | 0.0378 µM | 0.0878 µM | 0.388 µM
OC1c2ccccc2C2(O)C1C(c1ccccc1)C(c1ccccc1)C2(O)c1ccccc1 (configuration not stated) | – | 22.2 µM | 28.6 µM | 25.5 µM | 29.7 µM | > 100 µM | 25.7 µM | > 100 µM | 26.9 µM | > 100 µM | – | – | – | – | – | – | – | – | – | –
CC(C)CNCC(O)COc1ccc(C(C)(C)c2ccc(OCC(O)CNCC(C)C)cc2)cc1 (configuration not stated) | 3.59 µM | 7.35 µM | 4.26 µM | 6.68 µM | 3.26 µM | – | 3.69 µM | 21.4 µM | 4.15 µM | 6.18 µM | 1.79 µM | 2.2 µM | 2.02 µM | 2.36 µM | 1.73 µM | – | 1.8 µM | 6.52 µM | 1.92 µM | 2.38 µM
CC(=O)N[C@@H]1C(O)CN2C(=O)C(=O)O[C@H](C(O)CO)[C@@H]12 (some centres not stated) | > 100 µM | – | > 100 µM | > 100 µM | > 100 µM | – | > 100 µM | – | > 100 µM | > 100 µM | – | – | – | – | – | – | – | – | – | –
CCCn1c(SC)nc(COC(=O)NC)c1COC(=O)NC | > 100 µM | > 100 µM | – | > 100 µM | > 100 µM | > 100 µM | > 100 µM | > 100 µM | > 100 µM | > 100 µM | – | – | – | – | – | – | – | – | – | –
O=C([CH-]C(=O)c1ccccc1)c1ccccc1.O=C([CH-]C(=O)c1ccccc1)c1ccccc1.O=C([CH-]C(=O)c1ccccc1)c1ccccc1.[Nd+3].[OH3+] | 19.1 µM | 53.6 µM | 19 µM | 13.5 µM | 24.6 µM | 20.8 µM | 30.4 µM | 51.7 µM | 14.8 µM | – | 4.92 µM | 8.7 µM | 4.73 µM | 2.07 µM | 7.84 µM | 5.34 µM | 7.74 µM | 6.63 µM | 3.01 µM | –
O=C(Nc1cccc([N+](=O)[O-])c1)C(=O)C(C(=O)c1ccccc1-c1ccccc1)C1OC(=O)c2ccccc21 (configuration not stated) | 26.6 µM | – | 30.5 µM | 66.5 µM | 93.4 µM | – | 67.6 µM | – | 36.4 µM | 99 µM | – | – | – | – | – | – | – | – | – | –
CC1CC#CCOC(=O)CCCC1=O (configuration not stated) | > 100 µM | – | > 100 µM | > 100 µM | – | – | > 100 µM | > 100 µM | > 100 µM | > 100 µM | – | – | – | – | – | – | – | – | – | –
CC1CCP(=O)(c2ccccc2)c2ccccc21 (configuration not stated) | 46.7 µM | > 100 µM | > 100 µM | > 100 µM | > 100 µM | – | > 100 µM | > 100 µM | > 100 µM | > 100 µM | – | – | – | – | – | – | – | – | – | –
Cc1ccc(S(=O)(=O)NCCNC2=CC(=O)c3nc4ccccc4c4ccnc2c34)cc1 | > 100 µM | 48.1 µM | – | 39 µM | 54.3 µM | 48.3 µM | 57.9 µM | > 100 µM | 46.4 µM | – | 26.9 µM | 16.2 µM | – | 17.7 µM | 19.5 µM | 20.5 µM | 26.7 µM | 26.8 µM | 17.5 µM | –
Cc1ccc(-c2cc(-c3ccco3)c(C#N)c(=O)[nH]2)cc1 | > 100 µM | > 100 µM | > 100 µM | > 100 µM | > 100 µM | – | > 100 µM | > 100 µM | > 100 µM | > 100 µM | – | – | – | – | – | – | – | – | – | –
Cn1nc(-c2ccccc2)c(C(=O)/C=C/c2ccc(F)cc2)c(N2CCCCC2)c1=O | 11.5 µM | > 100 µM | – | – | – | 27.3 µM | 16.2 µM | – | – | 6.46 µM | – | – | – | – | – | – | – | – | – | –
COC[C@@H](N=CN1CCc2cc(OC)c(OC)cc2[C@@H]1C)C(C)(C)C | > 100 µM | > 100 µM | – | > 100 µM | > 100 µM | > 100 µM | > 100 µM | > 100 µM | > 100 µM | > 100 µM | – | – | – | – | – | – | – | – | – | –
COc1cc(/C=C\c2ccc(C)cc2)cc(OC)c1OC | – | – | 0.215 µM and < 0.0303 µM | – | > 76.6 µM | > 53.8 µM | – | 46.5 µM | 0.00442 µM | < 0.044 µM | – | – | < 0.0129 µM | 0.00818 µM | < 0.021 µM | 0.0235 µM | – | – | – | –
O=C(/C=C/c1ccccc1)CC1OC(=O)c2ccccc21 (configuration not stated) | > 100 µM | > 100 µM | > 100 µM | > 100 µM | > 100 µM | – | > 100 µM | > 100 µM | – | > 100 µM | – | – | – | – | – | – | – | – | – | –
COc1cc(/C=C2\CCC/C(=C\c3cc(OC)c(O)c(OC)c3)C2=O)cc(OC)c1O | – | 3.45 µM | – | – | 75 µM and > 100 µM | 4.38 µM and 7.62 µM | 75 µM and 24.8 µM | 75 µM and > 100 µM | – | 17.8 µM | 2.56 µM | – | – | 4.98 µM | 2.92 µM | 2.51 µM | 3.12 µM | 8.24 µM | 3.47 µM | –
Nc1nc2c(c(=O)[nH]1)NC(CO)CN2 (configuration not stated) | > 100 µM | > 100 µM | – | > 100 µM | 64.3 µM | – | > 100 µM | – | > 100 µM | > 100 µM | – | – | – | – | – | – | – | – | – | –
